Holding throughout (assay): TGFα-shedding assay-based GPCR screening with chimeric Gα subunit proteins
What all share (format): cell-based

Experiment [1] addresses T1, 348 GPCRs (Homo sapiens, UniProt O00398).
T1 construct: expressed in transfected cells; host or cells: HEK293A

For experiment [2], the target named is T2, 348 GPCRs (Homo sapiens, UniProt P18825).
T2 construct: expressed in transfected cells; host or cells: HEK293A
T2 sequence (P18825 1-462): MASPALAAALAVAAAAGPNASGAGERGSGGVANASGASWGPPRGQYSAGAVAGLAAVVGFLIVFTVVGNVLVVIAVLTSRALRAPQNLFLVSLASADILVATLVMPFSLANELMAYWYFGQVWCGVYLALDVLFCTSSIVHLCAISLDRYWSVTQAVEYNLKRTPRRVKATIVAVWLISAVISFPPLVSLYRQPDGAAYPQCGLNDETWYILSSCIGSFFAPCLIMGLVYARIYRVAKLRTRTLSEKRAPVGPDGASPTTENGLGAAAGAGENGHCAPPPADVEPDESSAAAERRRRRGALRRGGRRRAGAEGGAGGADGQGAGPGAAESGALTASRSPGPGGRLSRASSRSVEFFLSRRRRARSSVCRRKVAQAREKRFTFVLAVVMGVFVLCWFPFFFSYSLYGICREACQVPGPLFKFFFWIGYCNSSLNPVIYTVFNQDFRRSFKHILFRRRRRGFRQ

In experiment [3] the target is 348 GPCRs (Homo sapiens, UniProt P21453). Conditions: 10µM, Favipiravir 100μM.
Chain of 348 GPCRs (Homo sapiens, UniProt P21453) (P21453 whole entry): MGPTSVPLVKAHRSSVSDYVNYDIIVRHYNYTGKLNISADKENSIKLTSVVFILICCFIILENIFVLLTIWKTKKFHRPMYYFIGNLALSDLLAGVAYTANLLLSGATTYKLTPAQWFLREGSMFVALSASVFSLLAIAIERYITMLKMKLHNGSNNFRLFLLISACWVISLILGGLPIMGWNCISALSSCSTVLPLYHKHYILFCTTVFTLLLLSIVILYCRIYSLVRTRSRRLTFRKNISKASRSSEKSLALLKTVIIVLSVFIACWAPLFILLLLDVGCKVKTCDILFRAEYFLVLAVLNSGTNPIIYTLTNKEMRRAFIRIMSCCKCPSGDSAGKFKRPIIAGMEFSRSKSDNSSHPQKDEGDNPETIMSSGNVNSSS
Experiment [4] concerns the target T3, 348 GPCRs (Homo sapiens, UniProt P29371).
T3 construct: expressed in transfected cells; host or cells: HEK293A
T3 sequence (P29371 1-465): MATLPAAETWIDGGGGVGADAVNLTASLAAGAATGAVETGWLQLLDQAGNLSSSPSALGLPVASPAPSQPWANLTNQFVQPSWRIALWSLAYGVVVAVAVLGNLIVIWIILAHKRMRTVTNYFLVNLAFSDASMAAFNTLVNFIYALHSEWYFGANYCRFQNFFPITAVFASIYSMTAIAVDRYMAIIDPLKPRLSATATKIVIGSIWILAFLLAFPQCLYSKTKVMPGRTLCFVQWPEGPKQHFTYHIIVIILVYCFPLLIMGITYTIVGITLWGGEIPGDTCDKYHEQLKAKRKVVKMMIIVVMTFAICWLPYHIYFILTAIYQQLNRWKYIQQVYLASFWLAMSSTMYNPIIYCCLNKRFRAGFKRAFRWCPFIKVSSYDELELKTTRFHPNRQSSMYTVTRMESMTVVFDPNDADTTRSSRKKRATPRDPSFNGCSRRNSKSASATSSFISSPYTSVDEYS
Conditions: 10µM, Favipiravir 100μM.

Experiment [5] deals with T4, 348 GPCRs (Homo sapiens, UniProt Q96LB2).
T4 construct: expressed in transfected cells; host or cells: HEK293A
T4 sequence (Q96LB2 whole entry): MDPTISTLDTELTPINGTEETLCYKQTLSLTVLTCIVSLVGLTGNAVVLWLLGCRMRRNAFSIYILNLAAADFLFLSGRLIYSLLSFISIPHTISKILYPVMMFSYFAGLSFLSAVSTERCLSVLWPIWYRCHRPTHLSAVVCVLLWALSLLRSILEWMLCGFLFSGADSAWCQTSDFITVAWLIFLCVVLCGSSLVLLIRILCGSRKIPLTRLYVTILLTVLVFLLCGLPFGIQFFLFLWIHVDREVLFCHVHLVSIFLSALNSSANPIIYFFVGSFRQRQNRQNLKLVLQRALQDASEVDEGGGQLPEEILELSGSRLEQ
Conditions: 10µM, Favipiravir 100μM.

Experiment [6] has as its target T5, 348 GPCRs (Homo sapiens, UniProt Q96RI8).
T5 construct: expressed in transfected cells; host or cells: HEK293A
T5 sequence (Q96RI8 1-345): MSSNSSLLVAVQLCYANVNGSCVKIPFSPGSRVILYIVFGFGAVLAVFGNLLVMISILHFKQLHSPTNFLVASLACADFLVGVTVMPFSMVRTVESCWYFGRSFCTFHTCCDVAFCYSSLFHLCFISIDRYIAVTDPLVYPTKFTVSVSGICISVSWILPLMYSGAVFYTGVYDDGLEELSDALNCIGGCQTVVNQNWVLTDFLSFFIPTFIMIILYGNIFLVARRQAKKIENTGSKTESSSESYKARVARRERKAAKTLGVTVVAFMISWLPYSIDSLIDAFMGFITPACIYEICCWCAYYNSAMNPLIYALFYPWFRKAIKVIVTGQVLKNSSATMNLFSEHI
Conditions: 10µM, Favipiravir 100μM.

For experiment [7], the target named is T6, 348 GPCRs (Homo sapiens, UniProt Q9H244).
T6 construct: expressed in transfected cells; host or cells: HEK293A
T6 sequence (Q9H244 whole entry): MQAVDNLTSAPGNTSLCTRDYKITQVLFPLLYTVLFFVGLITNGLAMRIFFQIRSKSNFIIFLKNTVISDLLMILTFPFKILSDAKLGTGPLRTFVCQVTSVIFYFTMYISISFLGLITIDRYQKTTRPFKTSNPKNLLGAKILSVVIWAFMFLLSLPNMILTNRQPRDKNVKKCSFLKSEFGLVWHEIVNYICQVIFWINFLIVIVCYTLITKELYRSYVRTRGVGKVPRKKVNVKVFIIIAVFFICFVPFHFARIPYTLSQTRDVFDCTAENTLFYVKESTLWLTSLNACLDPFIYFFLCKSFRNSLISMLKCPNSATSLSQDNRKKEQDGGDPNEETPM

For experiment [8], the target named is T7, 348 GPCRs (Homo sapiens, UniProt Q9H255).
T7 construct: expressed in transfected cells; host or cells: HEK293A
T7 sequence (Q9H255 1-320): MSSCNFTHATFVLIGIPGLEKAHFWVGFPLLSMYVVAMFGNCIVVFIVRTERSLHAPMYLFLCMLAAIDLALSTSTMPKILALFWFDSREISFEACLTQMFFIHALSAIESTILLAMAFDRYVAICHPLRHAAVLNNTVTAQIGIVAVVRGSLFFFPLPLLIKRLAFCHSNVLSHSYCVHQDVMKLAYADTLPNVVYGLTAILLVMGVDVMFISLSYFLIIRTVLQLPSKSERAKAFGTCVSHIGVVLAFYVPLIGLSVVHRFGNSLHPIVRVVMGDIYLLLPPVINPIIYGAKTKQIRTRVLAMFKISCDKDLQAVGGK
Conditions: 10µM, Favipiravir 100μM.

In experiment [9] the target is T8, 348 GPCRs (Homo sapiens, UniProt Q9UJ42).
T8 construct: expressed in transfected cells; host or cells: HEK293A
T8 sequence (Q9UJ42 whole entry): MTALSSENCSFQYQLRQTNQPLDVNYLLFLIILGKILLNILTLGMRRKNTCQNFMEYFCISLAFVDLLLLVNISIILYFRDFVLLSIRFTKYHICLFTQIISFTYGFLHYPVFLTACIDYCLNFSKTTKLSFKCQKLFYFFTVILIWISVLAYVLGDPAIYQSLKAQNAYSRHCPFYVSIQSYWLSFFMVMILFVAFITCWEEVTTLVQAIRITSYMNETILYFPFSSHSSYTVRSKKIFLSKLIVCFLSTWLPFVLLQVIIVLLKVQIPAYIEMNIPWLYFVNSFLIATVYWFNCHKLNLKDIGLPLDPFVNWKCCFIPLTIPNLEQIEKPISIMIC
Conditions: 10µM, Favipiravir 100μM.

The mark [10] stands for this setting: read-out: % GPCR activation compared to TPA, GPCR P2RY10 (purinergic receptor P2Y, G-protein coupled, 10).
Setting [11] is: read-out: % GPCR activation compared to TPA, GPCR α2C (adrenoceptor alpha 2C).
[12] abbreviates: read-out: % GPCR activation compared to TPA, S1PR1 (sphingosine-1-phosphate receptor 1).
Setting [13] is: read-out: % GPCR activation compared to TPA, NK3 (tachykinin receptor 3).
The mark [14] stands for this setting: read-out: % GPCR activation compared to TPA, MRGPRX1 (MAS-related GPR, member X1).
Where [15] appears, read: read-out: % GPCR activation compared to TPA, TAAR6 (trace amine associated receptor 6).
[16] abbreviates: read-out: % GPCR activation compared to TPA, GPCR P2Y12 (purinergic receptor P2Y, G-protein coupled, 12).
Setting [17] is: read-out: % GPCR activation compared to TPA, OR51E2 (olfactory receptor, family 51, subfamily E, member 2).
Where [18] appears, read: read-out: % GPCR activation compared to TPA, GPR160 (G Protein-Coupled Receptor 160).
[19] abbreviates: S1PR1 (sphingosine-1-phosphate receptor 1), read-out: % GPCR activation compared to TPA.
Where [20] appears, read: NK3 (tachykinin receptor 3), read-out: % GPCR activation compared to TPA.
[21] abbreviates: MRGPRX1 (MAS-related GPR, member X1), read-out: % GPCR activation compared to TPA.
The mark [22] stands for this setting: TAAR6 (trace amine associated receptor 6), read-out: % GPCR activation compared to TPA.
[23] abbreviates: OR51E2 (olfactory receptor, family 51, subfamily E, member 2), read-out: % GPCR activation compared to TPA.
[24] abbreviates: GPR160 (G Protein-Coupled Receptor 160), read-out: % GPCR activation compared to TPA.
The mark [25] stands for this setting: GPCR P2RY10 (purinergic receptor P2Y, G-protein coupled, 10), read-out: % GPCR activation compared to TPA.
Setting [26] is: GPCR α2C (adrenoceptor alpha 2C), read-out: % GPCR activation compared to TPA.
The mark [27] stands for this setting: GPCR P2Y12 (purinergic receptor P2Y, G-protein coupled, 12), read-out: % GPCR activation compared to TPA.

The values below come from publication PMC10175918 (Communications Biology, 2023).

Read-outs that look alike come from different tables or passages of the source.

T1 sequence (O00398 whole entry): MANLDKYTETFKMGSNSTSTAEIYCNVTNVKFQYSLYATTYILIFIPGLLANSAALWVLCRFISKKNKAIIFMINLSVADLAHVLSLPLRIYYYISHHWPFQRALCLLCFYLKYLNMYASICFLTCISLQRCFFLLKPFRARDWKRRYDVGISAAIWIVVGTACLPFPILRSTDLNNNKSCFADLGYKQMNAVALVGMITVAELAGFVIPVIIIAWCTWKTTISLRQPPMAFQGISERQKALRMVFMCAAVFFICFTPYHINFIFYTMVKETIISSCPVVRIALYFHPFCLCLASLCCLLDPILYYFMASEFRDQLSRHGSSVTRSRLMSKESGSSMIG

Consider `CC(C)OC(=O)[C@H](C)N[P@](=O)(OC[C@H]1O[C@@H](n2ccc(=O)[nH]c2=O)[C@](C)(F)[C@@H]1O)Oc1ccccc1` [sofosbuvir], for which the activation at 10 µM in [1] (setting [10]) was 0.334%; in [2] (setting [11]), -4.42%; in [3] (setting [12]), 0.0873%; in [4] (setting [13]), -1.94%; in [7] (setting [16]) it was -2.59%; in [8] (setting [17]), -1.75%. Further, in experiment [9] (setting [18]), the activation at 10 µM stood at 2.1%. The activation at 100 µM is -1.41% in [5] (setting [14]) and -3.52% in experiment [6] (setting [15]).
In the case of `NC(=O)c1nc(F)cnc1O` [favipiravir, 6-fluoro-3-hydroxy-2-pyrazinecarboxamide], the activation at 100 µM in [1] (GPCR P2RY10 (purinergic receptor P2Y, G-protein coupled, 10), 100μM, read-out: % GPCR activation compared to TPA) was -0.745%; in experiment [2] (GPCR α2C (adrenoceptor alpha 2C), 100μM, read-out: % GPCR activation compared to TPA), 7%; in experiment [5] (setting [21]), -1.16%; in experiment [6] (setting [22]), -1.51%; in experiment [7] (GPCR P2Y12 (purinergic receptor P2Y, G-protein coupled, 12), 100μM, read-out: % GPCR activation compared to TPA) it was -4.09%. In addition, the activation at 10 µM in [3] (setting [19]) is -0.836%; in experiment [4] (setting [20]), -0.777%; in [8] (setting [23]) it was -0.415%; in experiment [9] (setting [24]), -0.794%.
For the compound `CCC(CC)COC(=O)[C@H](C)N[P@](=O)(OC[C@H]1O[C@@](C#N)(c2ccc3c(N)ncnn23)[C@H](O)[C@@H]1O)Oc1ccccc1` [remdesivir], the activation at 10 µM in experiment [1] (setting [10]) is -1.53%; in [2] (setting [11]), 15.6%; in experiment [3] (setting [12]), -1.92%; in [4] (setting [13]), -0.179%; in experiment [7] (setting [16]) it was 0.718%; in experiment [8] (setting [17]), 0.358%. In addition, the activation at 10 µM in experiment [9] (setting [18]) is 0.13%. Further, the activation at 100 µM was 0.23% in experiment [5] (setting [14]) and -0.419% in experiment [6] (setting [15]).
As for `N#C[C@@]1(c2ccc3c(N)ncnn23)O[C@H](CO)[C@@H](O)[C@H]1O` [GS441524], the activation at 10 µM in experiment [1] (setting [25]) was -1.36%; in experiment [2] (setting [26]), 2.32%; in experiment [3] (setting [19]), -1.43%; in experiment [4] (setting [20]), -0.811%; in experiment [7] (setting [27]), -4.31%; in experiment [8] (setting [23]), 0.751%. Besides, the activation at 10 µM in experiment [9] (setting [24]) is 0.113%. Further, the values for the activation at 100 µM in experiment [5] (setting [21]) and in [6] (setting [22]) were -1.59% and -1.31%, respectively.
As to `CC(C)C(=O)OC[C@H]1O[C@@H](n2ccc(NO)nc2=O)[C@H](O)[C@@H]1O` [molnupiravir], the activation at 10 µM in experiment [1] (setting [25]) was -1.61%; in [2] (setting [26]), -6.27%; in experiment [3] (setting [19]) it was -2.19%; in experiment [4] (setting [20]), -1.59%; in experiment [7] (setting [27]), -6.75%; in [8] (setting [23]), -0.989%. Moreover, the activation at 10 µM in experiment [9] (setting [24]) came to 0.0934%. Moreover, the results for the activation at 100 µM in [5] (setting [21]) and in experiment [6] (setting [22]) were -2.42% and -2.31%, respectively.
